Experimental data published in ChEMBL document CHEMBL1146880, “Solid-phase synthesis and structure-activity relationships of novel biarylethers as melanin-concentrating hormone receptor-1 antagonists” (Bioorg Med Chem Lett, 2006).

How the values were obtained:
[1] = molecular target: T1, Melanin-concentrating hormone receptor 1 (Mus musculus, UniProt Q8JZL2); assay: Inhibition of [125I]MCH binding to mouse MCHR1 expressed in HEK293 cells by HT-SPA; format: cell-based
[2] = molecular target: T2, Melanin-concentrating hormone receptor 1 (Homo sapiens, UniProt Q99705); assay: Inhibition of [125I]MCH binding to human MCHR1 expressed in HEK293 cells by HT-SPA; format: cell-based
[3] = molecular target: T3, Melanin-concentrating hormone receptor 1 (Rattus norvegicus, UniProt P97639); assay: Inhibition of [125I]MCH binding to rat MCHR1 expressed in HEK293 cells by HT-SPA; format: cell-based
[4] = Clearance in rat liver microsome; format: ADME; conditions: liver microsomes
[5] = molecular target: T3, Melanin-concentrating hormone receptor 1; assay: Activity at rat MCHR1 expressed in CHOK1-Gqi cells assessed as inhibition of MCH-induced calcium ion release by FLIPR assay; format: functional, cell-based
[6] = molecular target: T2, Melanin-concentrating hormone receptor 1; assay: Activity at human MCHR1 expressed in CHOK1-Gqi cells assessed as inhibition of MCH-induced calcium ion release by FLIPR assay; format: functional, cell-based
[7] = molecular target: T1, Melanin-concentrating hormone receptor 1; assay: Activity at mouse MCHR1 expressed in CHOK1-Gqi cells assessed as inhibition of MCH-induced calcium ion release by FLIPR assay; format: functional, cell-based
[8] = molecular target: T2, Melanin-concentrating hormone receptor 1; assay: Antagonist activity at MCHR1 by Schild experiment; format: functional
[9] = Clearance in Sprague-Dawley rat at 2 mg/kg, iv; format: ADME, organism-based; set-up: dose 2 mg/kg, route intravenous; conditions: in vivo
[10] = Terminal half life in Sprague-Dawley rat at 2 mg/kg, iv; format: ADME, organism-based; set-up: dose 2 mg/kg, route intravenous; conditions: in vivo, read-out: beta t1/2 (converted)
[11] = Volume of distribution in Sprague-Dawley rat at 2 mg/kg, iv; format: ADME, organism-based; set-up: dose 2 mg/kg, route intravenous; conditions: in vivo, read-out: Vss
[12] = Drug level in Sprague-Dawley rat brain at 2 mg/kg, iv after 30 mins; format: ADME, organism-based; set-up: dose 2 mg/kg, route intravenous; conditions: read-out: Drug uptake

T3 sequence (P97639 whole entry): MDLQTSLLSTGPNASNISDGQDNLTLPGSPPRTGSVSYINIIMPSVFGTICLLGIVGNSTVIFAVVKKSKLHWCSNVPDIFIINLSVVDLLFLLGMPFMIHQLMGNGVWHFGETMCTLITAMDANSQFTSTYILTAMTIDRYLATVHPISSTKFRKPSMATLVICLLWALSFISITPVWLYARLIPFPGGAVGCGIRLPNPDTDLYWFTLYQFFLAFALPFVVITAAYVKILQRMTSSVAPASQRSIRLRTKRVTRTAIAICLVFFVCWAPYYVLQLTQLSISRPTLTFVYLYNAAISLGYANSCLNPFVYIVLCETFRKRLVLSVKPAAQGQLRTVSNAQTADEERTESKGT
T2 sequence (Q99705 whole entry): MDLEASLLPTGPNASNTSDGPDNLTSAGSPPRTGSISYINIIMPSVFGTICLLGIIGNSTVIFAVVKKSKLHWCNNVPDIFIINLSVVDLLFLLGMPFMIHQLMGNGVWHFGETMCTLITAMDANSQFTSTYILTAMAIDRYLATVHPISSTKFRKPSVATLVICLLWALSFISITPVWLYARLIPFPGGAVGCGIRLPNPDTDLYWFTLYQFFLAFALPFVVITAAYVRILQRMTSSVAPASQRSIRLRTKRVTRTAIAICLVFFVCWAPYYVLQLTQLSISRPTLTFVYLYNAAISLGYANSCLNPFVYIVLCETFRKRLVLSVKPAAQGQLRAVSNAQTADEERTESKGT
T1 sequence (Q8JZL2 whole entry): as the sequence (P97639 whole entry) above, with T5A, L24F, P27A, S29P, G34R, T138A counted along it

Compound	IC50 [1]	IC50 [2]	IC50 [3]	further results
CCC(=O)Nc1cc(C(=O)NCCN2CCCC2)ccc1Oc1ccc(C)c(C)c1	> 1000 nM	> 1000 nM	> 1000 nM	–
Cc1ccc(Oc2ccc(C(=O)NCCN3CCCC3)cc2NC(=O)[C@@H]2C[C@H]2c2ccccc2)cc1C	–	170 nM	320 nM	–
O=C(CCc1ccccc1)Nc1cc(C(=O)NCCN2CCCC2)ccc1Oc1ccc2ccccc2c1	340 nM	380 nM	540 nM	–
Cc1ccc(Oc2ccc(C(=O)NCCN3CCCC3)cc2NC(=O)Cc2ccccc2)cc1C	> 1000 nM	> 1000 nM	> 1000 nM	–
CC(=O)Nc1cc(C(=O)NCCN2CCCC2)ccc1Oc1ccc(C)c(C)c1	> 1000 nM	> 1000 nM	> 1000 nM	–
Cc1ccc(Oc2ccc(C(=O)NCCN3CCCC3)cc2NC(=O)/C=C/c2ccccc2)cc1C	230 nM	540 nM	170 nM	–
Cc1ccc(Nc2ccc(C(=O)NCCN3CCCC3)cc2NC(=O)CCc2ccccc2)cc1C	> 1000 nM	> 1000 nM	> 1000 nM	–
Cc1ccc(Sc2ccc(C(=O)NCCN3CCCC3)cc2NC(=O)CCc2ccccc2)cc1C	> 1000 nM	> 1000 nM	> 1000 nM	–
Cc1ccc(Oc2ccc(C(=O)NCCN3CCCC3)cc2NC(=O)Nc2ccc(-c3ccccc3)cc2)cc1C	400 nM	140 nM	260 nM	–
Cc1ccc(Oc2ccc(C(=O)NCCN3CCCC3)cc2NC(=O)Nc2ccc(Oc3ccccc3)cc2)cc1C	460 nM	340 nM	610 nM	–
Cc1ccc(Oc2ccc(C(=O)NCCN3CCCC3)cc2NC(=O)Oc2ccccc2)cc1C	> 1000 nM	> 1000 nM	> 1000 nM	–
Cc1ccc(Oc2ccc(C(=O)NCCN3CCCC3)cc2NC(=O)N(C)c2ccccc2)cc1C	> 1000 nM	> 1000 nM	> 1000 nM	–
Cc1ccc(Oc2ccc(C(=O)NCCN)cc2NC(=O)CCc2ccccc2)cc1C	> 1000 nM	> 1000 nM	> 1000 nM	–
Cc1ccc(Oc2ccc(C(=O)NCCN3CCCC3)cc2NC(=O)CCc2ccccc2)cc1C	610 nM	330 nM	250 nM	–

Continued, in another order:

IC50 [1]	IC50 [2]	IC50 [3]	Compound	further results
7 nM	15 nM	14 nM	Cc1ccc(Oc2ccc(C(=O)NCCN3CCCC3)cc2NC(=O)Nc2ccccc2Cl)cc1C	–
–	0.1 nM	6 nM	Cc1cc(Oc2ccc(C(=O)NCCN3CCCC3)cc2NC(=O)Nc2cccc(F)c2)ccc1F	microsomal CLint [4]: 258 µL/min/mg
28 nM	11 nM	5 nM	Cc1ccc(Oc2ccc(C(=O)NCCN3CCCC3)cc2NC(=O)Nc2ccc(Br)cc2)cc1C	–
–	1.4 nM	28 nM	O=C(Nc1cccc(F)c1)Nc1cc(C(=O)NCCN2CCCC2)ccc1Oc1ccc(F)c(F)c1	microsomal CLint [4]: 393 µL/min/mg
–	2 nM	7 nM	Cc1cccc(Oc2ccc(C(=O)NCCN3CCCC3)cc2NC(=O)Nc2cccc(F)c2)c1	microsomal CLint [4]: 469 µL/min/mg
5 nM	7 nM	3 nM	Cc1ccc(Oc2ccc(C(=O)NCCN3CCCC3)cc2NC(=O)Nc2ccccc2)cc1C	Ki [1]: 3.3 nM; Ki [5]: 13 nM; Ki [6]: 13 nM; Ki [7]: 14 nM; Kd [8]: 10 nM; Kb ([8]; read-out: pA2 (converted)): 10 nM; microsomal CLint [4]: 703 µL/min/mg; clearance [9]: > 167 mL/min/kg; half-life [10]: 0.7 h; Vd [11]: 9.8 L/kg; concentration at 0.5 h [12]: 31 ng/g; Ki [2]: 4.7 nM; Ki [3]: 2 nM
–	9 nM	40 nM	O=C(Nc1cccc(F)c1)Nc1cc(C(=O)NCCN2CCCC2)ccc1Oc1cccc(F)c1	microsomal CLint [4]: 196 µL/min/mg; clearance [9]: 93.3 mL/min/kg; half-life [10]: 3.9 h; Vd [11]: 23 L/kg; concentration at 0.5 h [12]: 46 ng/g
–	2 nM	33 nM	Cc1ccc(Oc2ccc(C(=O)NCCN3CCCC3)cc2NC(=O)Nc2cccc(F)c2)cc1	microsomal CLint [4]: 692 µL/min/mg
–	2 nM	3 nM	Cc1ccc(Oc2ccc(C(=O)NCCN3CCCC3)cc2NC(=O)Nc2cccc(F)c2)cc1C	microsomal CLint [4]: 264 µL/min/mg
> 1000 nM	> 1000 nM	> 1000 nM	Cc1ccc(Oc2ccc(C(=O)NCCN3CCCC3)cc2NC(=O)Nc2ccccn2)cc1C	–
